Patent US20050027003A1, “Methods of therapeutic treatment using retinoids with reduced side effects” (Allergan, Inc., priority 2003, published 2005)
Like-named read-outs stand apart in the source and are kept apart here.

Key:
[1] = in vivo; cited from earlier work
[2] = in vivo; cited from earlier work; remark: listed apart in the source
patients [3] = settings: published data (N = 525); cited from earlier work
[4] = oral; cited from earlier work
patients [5] = settings: published data (N = 525); cited from earlier work; remark: listed apart in the source
RARs = test: Activation of and selectivity among the retinoic acid receptors; assay type: cell-based; settings: relative to all-trans-retinoic acid, the natural ligand
Text: (§1) The selection of a retinoid component useful in accordance with the present invention can be accomplished using straightforward, conventional testing and/or assays, such as the transactivation assays set forth in Evans et al., U.S. Pat. Nos., 5,217,867; 5,262,300; 5,310,662; and 5,906,920, each of which is hereby incorporated in its entirety herein by reference, which are well known in the art. Such testing and/or assays can identify suitable useful retinoid components without undue experimentation.
(§2) Other well known and straightforward test methods and/or assays may be employed to determine the selectivity or specificity of an RAR active compound to RAR-alpha, RAR-beta and RAR-gamma. For example, using conventional and well known assays, for example, such as set forth in Klein et al. U.S. Pat. No. 5,776,699, the disclosure of which is incorporated in its entirety herein by reference, and/or the above-noted Evans et al. patents, the selectively or specificity of a compound to RAR-alpha, RAR-beta and RAR-gamma can be determined. Based on the results of such assays, one can determine whether or not a compound is useful in accordance with one or more aspects of the present invention.

RAR-α = target: T1, RAR-α (Homo sapiens, UniProt P10276); test: RAR-α activity; assay type: cell-based
T1 sequence (P10276 1-462): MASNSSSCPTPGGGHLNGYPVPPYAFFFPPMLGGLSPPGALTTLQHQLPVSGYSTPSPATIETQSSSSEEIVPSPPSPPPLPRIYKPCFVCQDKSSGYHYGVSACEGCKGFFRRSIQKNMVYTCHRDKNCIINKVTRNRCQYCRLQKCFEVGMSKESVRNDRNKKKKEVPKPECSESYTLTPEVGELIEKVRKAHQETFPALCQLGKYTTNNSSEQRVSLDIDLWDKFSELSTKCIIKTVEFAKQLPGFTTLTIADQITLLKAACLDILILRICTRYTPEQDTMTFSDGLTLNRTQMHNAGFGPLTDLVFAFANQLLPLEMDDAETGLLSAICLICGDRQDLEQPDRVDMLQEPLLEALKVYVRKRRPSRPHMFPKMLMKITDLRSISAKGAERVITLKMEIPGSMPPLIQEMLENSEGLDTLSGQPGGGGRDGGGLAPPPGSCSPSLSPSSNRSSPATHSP
Text: as §1, §2

[6] = Example 1: 6.3 mg oral tazarotene with high-fat meal vs 8-10 hour fast, pharmacokinetics; assay type: in vivo, human
Method: (§3) The LC-MS/MS test for simultaneous detection of tazarotene and tazarotenic acid may be run as follows. One ml of plasma (EDTA-treated) is diluted with 1.0 ml of water. Diluted plasma is extracted using solid phase extraction (SPE) on a C18 cartridge. The eluate is evaporated, reconstituted in a water/methanol-based mobile phase, and injected onto a 4.6×50 mm, 3 μm pore size C-8 reverse phase high pressure liquid chromatography (HPLC) column (Agilent, Wilmington, Del.). Compounds are gradient-eluted at 1.2 mL/min and detected using an API 3000 triple quadrupole mass spectrometer with an Atmospheric Pressure Chemical Ionization (APCI) source (PE-Sciex, Concord, Ontario, Canada). Molecular reaction monitoring enhances the sensitivity and selectivity of this assay by collisionally dissociating the protonated molecules for the analyte and an internal standard thereby forming the product ions. The specific precursor-product ion pair monitored are m/z 352→324 for tazarotene, m/z 359→331 for the tazarotene internal standard, m/z 324→294 for tazarotenic acid, and m/z 331+298 for the tazarotenic acid internal standard. The lower limit of quantitation at assay range tested is 0.1 ng/mL, with a coefficient of variation and deviation from nominal concentration of <15%.

[7] = Example 7: effect of body weight on plasma tazarotenic acid Cmax and AUC; assay type: in vivo, human; settings: 6 mg tazarotene daily
Method: as §3, with “<15%. […]” for “<15%.”

## CCOC(=O)/C=C(C)/C=C/C=C(C)/C=C/c1c(C)cc(OC)c(C)c1C [etretinate]
[1]
  bioavailability vs body weight: increased with a reduced body weight

## COc1cc(C)c(/C=C/C(C)=C/C=C/C(C)=C/C(=O)O)c(C)c1C [acitretin]
[1]
  bioavailability vs body weight: increased with a reduced body weight
[2]
  interaction with coadministered contraceptives: interferes with the contraceptive effect
Patients [3]
  Adverse event: Alopecia: 319 (60.8) number (%) of patients
  Adverse event: Arthralgia: 102 (19.4) number (%) of patients
  Adverse event: Atrophy of skin: 64 (12.2) number (%) of patients
  Adverse event: Back pain: 41 (7.8) number (%) of patients
  Adverse event: Cheilitis: 429 (81.7) number (%) of patients
  Adverse event: Dry Skin: 174 (33.1) number (%) of patients
  Adverse event: Dry mouth/Oral dryness: 76 (14.5) number (%) of patients
  Adverse event: Epistaxis: 61 (11.6) number (%) of patients
  Adverse event: Erythematous rash/Erythema: 57 (10.9) number (%) of patients
  Adverse event: Hyperesthesia: 66 (12.6) number (%) of patients
  Adverse event: Nail Disorder: 170 (32.4) number (%) of patients
  Adverse event: Paresthesia: 56 (10.7) number (%) of patients
  Adverse event: Paronychia/Nail disorder: 66 (12.6) number (%) of patients
  Adverse event: Pruritus: 157 (29.9) number (%) of patients
  Adverse event: Rhinitis: 153 (29.1) number (%) of patients
  Adverse event: Rigors/Chills: 67 (12.8) number (%) of patients
  Adverse event: Skin peeling/Desquamation: 345 (65.7) number (%) of patients
  Adverse event: Sticky skin/Skin disorder: 129 (24.6) number (%) of patients
  Adverse event: Xerophthalmia/Eye disorder: 112 (21.3) number (%) of patients

## CC1=C(/C=C/C(C)=C/C=C/C(C)=C\C(=O)O)C(C)(C)CCC1 [isotretinoin]
[4]
  total dose to reach the same peak blood concentration in the fasted state as following a high fat meal: more than doubled
[1]
  bioavailability vs body weight: increased with a reduced body weight
[2]
  interaction with coadministered contraceptives: decreases blood concentrations of both ethinyl estradiol and norethindrone
Patients [5]
  Adverse event: Cheilitis: 472 (90.2) number (%) of patients
  Adverse event: Conjunctivitis: 201 (38.4) number (%) of patients
  Adverse event: Desquamation central face/Desquamation: 187 (35.8) number (%) of patients
  Adverse event: Dry Skin: 172 (32.9) number (%) of patients
  Adverse event: Dry nose: 136 (26.0) number (%) of patients
  Adverse event: Epistaxis: 121 (23.1) number (%) of patients
  Adverse event: Fingertip peeling/Desquamation: 63 (12.0) number (%) of patients
  Adverse event: Headache: 44 (8.4) number (%) of patients
  Adverse event: Irritation of eyes: 85 (16.3) number (%) of patients
  Adverse event: Joint pain/Arthralgia: 60 (11.5) number (%) of patients
  Adverse event: Pruritus: 127 (24.3) number (%) of patients
  Adverse event: Rash-dermatitis/Rash: 82 (15.7) number (%) of patients
  Adverse event: Red Scaly face/Desquamation: 54 (10.3) number (%) of patients
  Adverse event: Skin fragility/Skin disorder: 164 (31.4) number (%) of patients

## CC1(C)CCSc2ccc(C#Cc3ccc(C(=O)O)cn3)cc21 [tazarotenic acid]
RARs
  receptor specificity and selectivity: specificity for the RARs and selectivity for RAR-β and RAR-γ
RAR-α
  RAR-α activity: minimal
[6]; Day 0, high-fat meal vs fasted
  average ratio of Cmax (test/reference): 1.00
[6]; single and multiple dose
  effect of high-fat meal on bioavailability or pharmacokinetics: does not substantially affect
[7]; day 0
  correlation of AUC with body weight: may be a correlation
[7]; day 9
  correlation between either Cmax or AUC and body weight: no correlation
